Laboratory results published in ChEMBL document CHEMBL1201861, “Genomics of Drug Sensitity in Cancer screening data, Wellcome Trust Sanger Institute”.

Assays:
Assay in all cases: cells
LB2518-MEL = format: functional, cell-based, Homo sapiens; conditions: Homo sapiens, LB2518-MEL
Description: SANGER: Inhibition of human LB2518-MEL cell growth in a cell viability assay.

HC-1 = format: functional, cell-based, Homo sapiens; conditions: Homo sapiens, HC-1
Description: SANGER: Inhibition of human HC-1 cell growth in a cell viability assay.

SNB-75 = format: functional, cell-based, Homo sapiens; conditions: Homo sapiens, SNB-75
Description: SANGER: Inhibition of human SNB75 cell growth in a cell viability assay.

D-502MG = format: functional, cell-based, Homo sapiens; conditions: Homo sapiens, D-502MG
Description: SANGER: Inhibition of human D-502MG cell growth in a cell viability assay.

OVCAR-4 = format: functional, cell-based, Homo sapiens; conditions: Homo sapiens, OVCAR-4
Description: SANGER: Inhibition of human OVCAR-4 cell growth in a cell viability assay.

NCI-H1650 = format: functional, cell-based, Homo sapiens; conditions: Homo sapiens, NCI-H1650
Description: SANGER: Inhibition of human NCI-H1650 cell growth in a cell viability assay.

HCC1187 = format: functional, cell-based, Homo sapiens; conditions: Homo sapiens, HCC1187
Description: SANGER: Inhibition of human HCC1187 cell growth in a cell viability assay.

SCH = format: functional, cell-based, Homo sapiens; conditions: Homo sapiens, SCH
Description: SANGER: Inhibition of human SCH cell growth in a cell viability assay.

LB771-HNC = format: functional, cell-based, Homo sapiens; conditions: Homo sapiens, LB771-HNC
Description: SANGER: Inhibition of human LB771-HNC cell growth in a cell viability assay.

NCI-H226 = format: functional, cell-based, Homo sapiens; conditions: Homo sapiens, NCI-H226
Description: SANGER: Inhibition of human NCI-H226 cell growth in a cell viability assay.

ES5 = format: functional, cell-based, Homo sapiens; conditions: Homo sapiens, ES5
Description: SANGER: Inhibition of human ES5 cell growth in a cell viability assay.

EW-18 = format: functional, cell-based, Homo sapiens; conditions: Homo sapiens, EW-18
Description: SANGER: Inhibition of human EW-18 cell growth in a cell viability assay.

KM-H2 = format: functional, cell-based, Homo sapiens; conditions: Homo sapiens, KM-H2
Description: SANGER: Inhibition of human KM-H2 cell growth in a cell viability assay.

TGBC24TKB = format: functional, cell-based, Homo sapiens; conditions: Homo sapiens, TGBC24TKB
Description: SANGER: Inhibition of human TGBC24TKB cell growth in a cell viability assay.

RS4-11 = format: functional, cell-based, Homo sapiens; conditions: Homo sapiens, RS4-11
Description: SANGER: Inhibition of human RS4-11 cell growth in a cell viability assay.

SNU-5 = format: functional, cell-based, Homo sapiens; conditions: Homo sapiens, SNU-5
Description: SANGER: Inhibition of human NCI-SNU-5 cell growth in a cell viability assay.

SJSA-1 = format: functional, cell-based, Homo sapiens; conditions: Homo sapiens, SJSA-1
Description: SANGER: Inhibition of human SJSA-1 cell growth in a cell viability assay.

LS-1034 = format: functional, cell-based, Homo sapiens; conditions: Homo sapiens, LS-1034
Description: SANGER: Inhibition of human LS-1034 cell growth in a cell viability assay.

LOX IMVI = format: functional, cell-based, Homo sapiens; conditions: Homo sapiens, LOX IMVI
Description: SANGER: Inhibition of human LOXIMVI cell growth in a cell viability assay.

NCI-H1648 = format: functional, cell-based, Homo sapiens; conditions: Homo sapiens, NCI-H1648
Description: SANGER: Inhibition of human NCI-H1648 cell growth in a cell viability assay.

ALL-PO = format: functional, cell-based, Homo sapiens; conditions: Homo sapiens, ALL-PO
Description: SANGER: Inhibition of human ALL-PO cell growth in a cell viability assay.

NEC8 = format: functional, cell-based, Homo sapiens; conditions: Homo sapiens, NEC8
Description: SANGER: Inhibition of human NEC8 cell growth in a cell viability assay.

GI-1 = format: functional, cell-based, Homo sapiens; conditions: Homo sapiens, GI-1
Description: SANGER: Inhibition of human GI-1 cell growth in a cell viability assay.

MSTO-211H = format: functional, cell-based, Homo sapiens; conditions: Homo sapiens, MSTO-211H
Description: SANGER: Inhibition of human MSTO-211H cell growth in a cell viability assay.

DMS-114 = format: functional, cell-based, Homo sapiens; conditions: Homo sapiens, DMS-114
KE-37 = format: functional, cell-based, Homo sapiens; conditions: Homo sapiens, KE-37
Description: SANGER: Inhibition of human KE-37 cell growth in a cell viability assay.

LU-139 = format: functional, cell-based, Homo sapiens; conditions: Homo sapiens, LU-139
Description: SANGER: Inhibition of human LU-139 cell growth in a cell viability assay.

NCI-H82 = format: functional, cell-based, Homo sapiens; conditions: Homo sapiens, NCI-H82
Description: SANGER: Inhibition of human NCI-H82 cell growth in a cell viability assay.

Ramos-2G6-4C10 = format: functional, cell-based, Homo sapiens; conditions: Homo sapiens, Ramos-2G6-4C10
Description: SANGER: Inhibition of human Ramos-2G6-4C10 cell growth in a cell viability assay.

KALS-1 = format: functional, cell-based, Homo sapiens; conditions: Homo sapiens, KALS-1
Description: SANGER: Inhibition of human KALS-1 cell growth in a cell viability assay.

Lu-65 = format: functional, cell-based, Homo sapiens; conditions: Homo sapiens, Lu-65
Description: SANGER: Inhibition of human LU-65 cell growth in a cell viability assay.

TGW = format: functional, cell-based, Homo sapiens; conditions: Homo sapiens, TGW
Description: SANGER: Inhibition of human TGW cell growth in a cell viability assay.

ATN-1 = format: functional, cell-based, Homo sapiens; conditions: Homo sapiens, ATN-1
Description: SANGER: Inhibition of human ATN-1 cell growth in a cell viability assay.

BB30-HNC = format: functional, cell-based, Homo sapiens; conditions: Homo sapiens, BB30-HNC
Description: SANGER: Inhibition of human BB30-HNC cell growth in a cell viability assay.

AM-38 = format: functional, cell-based, Homo sapiens; conditions: Homo sapiens, AM-38
Description: SANGER: Inhibition of human AM-38 cell growth in a cell viability assay.

COLO-824 = format: functional, cell-based, Homo sapiens; conditions: Homo sapiens, COLO-824
Description: SANGER: Inhibition of human COLO-824 cell growth in a cell viability assay.

MOLT-16 = format: functional, cell-based, Homo sapiens; conditions: Homo sapiens, MOLT-16
Description: SANGER: Inhibition of human MOLT-16 cell growth in a cell viability assay.

OMC-1 = format: functional, cell-based, Homo sapiens; conditions: Homo sapiens, OMC-1
Description: SANGER: Inhibition of human OMC-1 cell growth in a cell viability assay.

KNS-42 = format: functional, cell-based, Homo sapiens; conditions: Homo sapiens, KNS-42
Description: SANGER: Inhibition of human KNS-42 cell growth in a cell viability assay.

K5 = format: functional, cell-based, Homo sapiens; conditions: Homo sapiens, K5
Description: SANGER: Inhibition of human K5 cell growth in a cell viability assay.

HuTu80 = format: functional, cell-based, Homo sapiens, HUTU-80; conditions: Homo sapiens, HuTu80
Description: SANGER: Inhibition of human HUTU-80 cell growth in a cell viability assay.

KARPAS-299 = format: functional, cell-based, Homo sapiens; conditions: Homo sapiens, KARPAS-299
Description: SANGER: Inhibition of human KARPAS-299 cell growth in a cell viability assay.

HH = format: functional, cell-based, Homo sapiens; conditions: Homo sapiens, HH
Description: SANGER: Inhibition of human HH cell growth in a cell viability assay.

MHH-NB-11 = format: functional, cell-based, Homo sapiens; conditions: Homo sapiens, MHH-NB-11
Description: SANGER: Inhibition of human MHH-NB-11 cell growth in a cell viability assay.

DJM-1 = format: functional, cell-based, Homo sapiens; conditions: Homo sapiens, DJM-1
Description: SANGER: Inhibition of human DJM-1 cell growth in a cell viability assay.

LB831-BLC = format: functional, cell-based, Homo sapiens; conditions: Homo sapiens, LB831-BLC
Description: SANGER: Inhibition of human LB831-BLC cell growth in a cell viability assay.

COR-L88 = format: functional, cell-based, Homo sapiens; conditions: Homo sapiens, COR-L88
Description: SANGER: Inhibition of human COR-L88 cell growth in a cell viability assay.

NB10 = format: functional, cell-based, Homo sapiens; conditions: Homo sapiens, NB10
Description: SANGER: Inhibition of human NB10 cell growth in a cell viability assay.

TE-11 = format: functional, cell-based, Homo sapiens; conditions: Homo sapiens, TE-11
Description: SANGER: Inhibition of human TE-11 cell growth in a cell viability assay.

## Cc1cc([N+](=O)[O-])ccc1NS(=O)(=O)c1cc(Cl)ccc1Cl
LB2518-MEL
  IC50: 1160 nM
HC-1
  IC50: 12700 nM
SNB-75
  IC50: > 32000 nM
D-502MG
  IC50: 607 nM
OVCAR-4
  IC50: 4610 nM
NCI-H1650
  IC50: 8470 nM
HCC1187
  IC50: 20800 nM
SCH
  IC50: 20500 nM
LB771-HNC
  IC50: 2240 nM
NCI-H226
  IC50: 12300 nM
ES5
  IC50: > 32000 nM
EW-18
  IC50: 9580 nM
KM-H2
  IC50: 14900 nM
TGBC24TKB
  IC50: 5200 nM
RS4-11
  IC50: 13200 nM
SNU-5
  IC50: > 32000 nM
SJSA-1
  IC50: 5700 nM
LS-1034
  IC50: 5550 nM
LOX IMVI
  IC50: 13900 nM
NCI-H1648
  IC50: 2040 nM
ALL-PO
  IC50: 2340 nM
NEC8
  IC50: 21700 nM
GI-1
  IC50: 1430 nM
MSTO-211H
  IC50: > 32000 nM
DMS-114
  IC50: > 32000 nM
KE-37
  IC50: > 32000 nM
LU-139
  IC50: 12900 nM
NCI-H82
  IC50: 18000 nM
Ramos-2G6-4C10
  IC50: 6000 nM
KALS-1
  IC50: 8540 nM
Lu-65
  IC50: 31800 nM
TGW
  IC50: > 32000 nM
ATN-1
  IC50: > 32000 nM
BB30-HNC
  IC50: 2610 nM
AM-38
  IC50: 18800 nM
COLO-824
  IC50: 18100 nM
MOLT-16
  IC50: 5120 nM
OMC-1
  IC50: 8570 nM
KNS-42
  IC50: 12700 nM
K5
  IC50: 6430 nM
HuTu80
  IC50: 1150 nM
KARPAS-299
  IC50: > 32000 nM
HH
  IC50: 15200 nM
MHH-NB-11
  IC50: 20700 nM
DJM-1
  IC50: 10500 nM
LB831-BLC
  IC50: 2100 nM
COR-L88
  IC50: > 32000 nM
NB10
  IC50: 16300 nM
TE-11
  IC50: > 32000 nM

## N#Cc1c(O)c2c(-c3ccc(-c4ccccc4O)cc3)csc2[nH]c1=O
LB2518-MEL
  IC50: > 1020 nM
HC-1
  IC50: 83.1 nM
SNB-75
  IC50: > 1020 nM
D-502MG
  IC50: > 1020 nM
OVCAR-4
  IC50: > 1020 nM
NCI-H1650
  IC50: > 1020 nM
HCC1187
  IC50: > 1020 nM
SCH
  IC50: > 1020 nM
LB771-HNC
  IC50: > 1020 nM
NCI-H226
  IC50: 407 nM
ES5
  IC50: > 1020 nM
EW-18
  IC50: 451 nM
KM-H2
  IC50: 424 nM
TGBC24TKB
  IC50: > 1020 nM
RS4-11
  IC50: 85.7 nM
SNU-5
  IC50: 944 nM
SJSA-1
  IC50: > 1020 nM
LS-1034
  IC50: > 1020 nM
LOX IMVI
  IC50: 88.3 nM
NCI-H1648
  IC50: > 1020 nM
ALL-PO
  IC50: 57.9 nM
NEC8
  IC50: 480 nM
GI-1
  IC50: > 1020 nM
MSTO-211H
  IC50: > 1020 nM
DMS-114
  IC50: > 1020 nM
KE-37
  IC50: 129 nM
LU-139
  IC50: > 1020 nM
NCI-H82
  IC50: > 1020 nM
Ramos-2G6-4C10
  IC50: 172 nM
KALS-1
  IC50: > 1020 nM
Lu-65
  IC50: 520 nM
TGW
  IC50: 311 nM
ATN-1
  IC50: 499 nM
BB30-HNC
  IC50: > 1020 nM
AM-38
  IC50: 64.4 nM
COLO-824
  IC50: 328 nM
MOLT-16
  IC50: 61.9 nM
OMC-1
  IC50: > 1020 nM
KNS-42
  IC50: > 1020 nM
K5
  IC50: > 1020 nM
HuTu80
  IC50: > 1020 nM
KARPAS-299
  IC50: 948 nM
HH
  IC50: 458 nM
MHH-NB-11
  IC50: 323 nM
DJM-1
  IC50: > 1020 nM
LB831-BLC
  IC50: > 1020 nM
COR-L88
  IC50: 725 nM
NB10
  IC50: > 1020 nM
TE-11
  IC50: > 1020 nM
